Results reported in publication PMC9739180, “Discovery of a Flavonoid FM04 as a Potent Inhibitor to Reverse P-Glycoprotein-Mediated Drug Resistance in Xenografts and Improve Oral Bioavailability of Paclitaxel” (International Journal of Molecular Sciences, 2022).
Like-named read-outs stand apart in the source and are kept apart here.

How the values were obtained:
[1] = tested on: human melanoma MDA435/LCC6MDR xenograft; test: In vivo efficacy in human melanoma MDA435/LCC6MDR xenograft; parameters: species or system Balb/c nude mice
Method: The treatment was given every other day for 12 times (q2d × 12) from day 0 to day 22. There were four treatment groups including (1) control: no treatment, (2) PTX alone (12 mg/kg, I.V.), (3) PTX alone (24 mg/kg, I.V.) and (4) combination treatment: FM04 (28 mg/kg, I.P.,−1 h) + PTX (12 mg/kg, I.V.).
Balb/c nude mice were subcutaneously xenografted with LCC6MDR. The treatment groups included (1) control—no treatment, (2) PTX (12 mg/kg, I.V.) alone, (3) PTX (24 mg/kg, I.V.) alone and (4) co-treatment: FM04 (28 mg/kg, I.P.) was injected 1 hr prior to PTX (12 mg/kg, I.V.). (A) tumor volume and (B) body weight were monitored throughout the treatment. The treatment was given to mice every other day for 12 times (q2d × 12) and indicated as an arrow. […] (C) Tumor-inhibition % on day 34 and tumor-doubling time after each treatment were determined. Number of animal deaths was monitored during the treatment. For the tumor volume at each time point, statistical analysis was conducted by one-way-ANOVA between co-treatment group and PTX alone treatment, * p < 0.05. /: not applicable.
The LCC6MDR tumor xenograft model was studied previously in [24]. Female Balb/c nude mice (4–6 week-old) were subcutaneously inoculated with 5 × 10^7cells of P-gp overexpressing LCC6MDR and allowed to develop tumor. Treatment began when a solid tumor of 150–200 mm^3 was formed. Tumor-bearing mice were randomized into four groups with 7–8 mice in each group: (1) control group—no treatment, (2) PTX alone (12 mg/kg, I.V.), (3) PTX alone (24 mg/kg, I.V.) and (4) co-treatment: FM04 (28 mg/kg, I.P.) was injected 1 hr before PTX (12 mg/kg, I.V.) administration. Tumor growth was measured by an electronic caliper on the injection day and the tumor volume was calculated using the following formula: Estimated tumor volume (mm^3)=l×w^2/2

[2] = tested on: CYP2C8 and CYP3A4; test: PTX metabolism in human liver microsomes: PTX level; type: in vitro ADME; conditions: HLM; in the presence of NADPH, no inhibitor
Method: Figure 7 Mechanistic study of FM04 to increase the oral PTX absorption. (A) transepithelial permeability of PTX in Caco-2 transwell assay. When confluent monolayer of Caco2 cells was formed on the transwell, the permeability of PTX (10 μM) was studied with or without FM04 (10 μM). For apical to basolateral transport (A to B), compound was added at the apical side (donor) and samples of the medium collected at the basal side (receiver) at 0, 20, 40, 60, 80, 100 and 120 min and vice versa for basal to apical transport (B to A). The PTX level was determined using UPLC-MS/MS. The relative % of PTX was presented as mean ± standard error of mean. N = 2–3 independent experiments. Impact of FM04 on PTX metabolism. […] After incubation, the levels of PTX, metabolites 6α-hydroxpaclitaxel (6α-OHP) and p3′-hydroxpaclitaxel (p3-OHP) were determined by HPLC-MS/MS. (B) changes in PTX. (C) changes in 6α-OHP. (D) changes in p3-OHP. […]
Drug solutions of PTX and FM04 were prepared in methanol. […] PTX and PTX metabolites were immediately analyzed by UPLC-MS/MS on the same day.
[^13C6]-paclitaxel (CAS: 379688-61-6) was the internal standard (IS) and purchased from Alsachim. Fifteen microliters of 10 μg/mL internal standard (IS) was added to all samples and calibration standards for quantification. […] PTX and both metabolites were semi-quantified base on the peak area ratio of the analyte/internal standard.

[3] = tested on: human melanoma MDA435/LCC6 xenograft; test: In vivo efficacy of oral co-administration in human melanoma MDA435/LCC6 xenograft; conditions: PTX 12 mg/kg I.V., (q1d × 4) × 2 rounds
Method: The treatment was given daily four times and two rounds on days 0, 1, 2, 3, 6, 7, 8 and 9 [(q1d × 4) × 2 rounds].
The treatment was given to mice every day for 4 times and 2 rounds [(q1d × 4) x 2 rounds] and indicated as an arrow.
LCC6 cells at 1 × 10^6 were injected intraperitoneally (I.P.) to allow ascite development for cell adaptation in vivo. Aspirated ascite was then injected S. C. to nude mice for the development of solid tumors as stock. These solid tumors were excised and trimmed into 1 mm^3 cubes for constructing subsequent S.C. xenografts. The study begun when these xenografts were confirmed to bear a tumor at 100–120 mm^3. FM04 (22 or 45 mg/kg) was co-administered orally with PTX (40, 60, 70 or 80 mg/kg). The treatment schedule was set to once a day for four times in two cycles (q1d × 4, 2 cycles). Tumor volume and body weight changes were monitored throughout the experiment. Animals with a body weight loss > 15% during treatment for more than 3 consecutive days were considered to be treatment-induced toxicity. All animals were sacrificed on day 30. Statistical analysis was performed by using one-way ANOVA (*, p < 0.05; **, p < 0.01; ***, p < 0.001).

[4] = parameters: method as in PMID 23090875; conditions: oral PTX 10 mg/kg, cited from earlier work
[5] = target: P-gp (Homo sapiens, UniProt P08183); test: Intracellular FM04 level in LCC6MDR and LCC6 cells (P-gp transport substrate test); type: cell-based; parameters: expressed in transfected cells; host or cells: MDA435/LCC6MDR (human melanoma); conditions: 1-10 µM, LCC6MDR vs LCC6
P-gp, sequence (P08183 whole entry): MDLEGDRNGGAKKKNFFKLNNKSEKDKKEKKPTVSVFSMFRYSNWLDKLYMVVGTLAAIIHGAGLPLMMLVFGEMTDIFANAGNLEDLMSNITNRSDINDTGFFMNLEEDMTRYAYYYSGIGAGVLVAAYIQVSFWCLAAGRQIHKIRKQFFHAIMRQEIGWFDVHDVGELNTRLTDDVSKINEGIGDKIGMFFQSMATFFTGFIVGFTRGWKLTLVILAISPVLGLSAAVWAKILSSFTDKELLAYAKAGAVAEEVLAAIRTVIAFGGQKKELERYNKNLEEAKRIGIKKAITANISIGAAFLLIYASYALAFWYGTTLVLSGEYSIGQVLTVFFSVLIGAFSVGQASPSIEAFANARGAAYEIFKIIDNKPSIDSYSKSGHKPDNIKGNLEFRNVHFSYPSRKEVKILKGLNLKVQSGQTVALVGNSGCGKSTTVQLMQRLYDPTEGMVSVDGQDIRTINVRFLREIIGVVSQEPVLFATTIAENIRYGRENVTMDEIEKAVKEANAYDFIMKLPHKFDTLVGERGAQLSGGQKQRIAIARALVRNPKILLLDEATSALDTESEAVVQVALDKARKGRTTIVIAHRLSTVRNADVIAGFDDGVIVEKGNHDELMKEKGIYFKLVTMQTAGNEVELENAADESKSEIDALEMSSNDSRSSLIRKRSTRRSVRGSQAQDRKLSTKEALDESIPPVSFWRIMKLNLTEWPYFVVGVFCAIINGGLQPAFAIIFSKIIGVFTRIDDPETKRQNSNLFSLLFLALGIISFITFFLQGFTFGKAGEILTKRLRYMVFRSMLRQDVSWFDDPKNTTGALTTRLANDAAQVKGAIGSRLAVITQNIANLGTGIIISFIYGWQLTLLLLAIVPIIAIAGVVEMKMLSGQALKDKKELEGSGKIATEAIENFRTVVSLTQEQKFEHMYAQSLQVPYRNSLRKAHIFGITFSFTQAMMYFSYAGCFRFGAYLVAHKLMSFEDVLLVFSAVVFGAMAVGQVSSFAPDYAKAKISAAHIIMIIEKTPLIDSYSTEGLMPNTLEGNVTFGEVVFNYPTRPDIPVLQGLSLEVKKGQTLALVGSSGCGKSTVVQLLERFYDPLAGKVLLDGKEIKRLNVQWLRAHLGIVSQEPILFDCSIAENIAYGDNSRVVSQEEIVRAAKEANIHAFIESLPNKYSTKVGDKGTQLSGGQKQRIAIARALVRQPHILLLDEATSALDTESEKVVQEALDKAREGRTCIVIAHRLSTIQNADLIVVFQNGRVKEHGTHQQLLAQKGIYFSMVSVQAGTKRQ
Method: N = 2–3 independent experiments. […] After incubation, the cells were lysed and spun down. […] N = 2–6 independent experiments. […] A 1% DMSO was a solvent control. […] N = 2–3 independent experiments.
P-gp is a transporter with broad substrate specificity. To explore whether FM04 can be pumped by P-gp and work as a competitive inhibitor to prevent the drug substrate from binding, the following experiment was performed. The intracellular level of FM04 was compared in P-gp overexpressing LCC6MDR cells and non-P-gp parental LCC6 cells after its treatment.

| Structure (SMILES) | Tumor doubling time (Td) ([1]; PTX 12 mg/kg I.V., q2d × 12) [days] | fold reduction in tumor volume ([1]; PTX 24 mg/kg I.V.) [fold] | weight loss ([1]; PTX 24 mg/kg I.V.) [%] | No. of animal death ([1]; PTX 24 mg/kg I.V., q2d × 12) | reduction of PTX level [2] [%] | Tumor inhibition on day 31 (%) [3] [%] | fold increase of oral plasma AUC of PTX relative to wild type mice ([4]; Cyp3a KO (Cyp3a−/−) mice) [fold] | fold increase of oral plasma AUC of PTX relative to wild type mice ([4]; P-gp KO (Mdr1a/b−/−) mice) [fold] | fold increase of oral plasma AUC of PTX relative to wild type mice ([4]; combined P-gp and Cyp3a KO mice) [fold] | Transport substrate of P-gp [5] |
| --- | --- | --- | --- | --- | --- | --- | --- | --- | --- | --- |
| CC(=O)O[C@H]1C(=O)[C@@]2(C)[C@H]([C@H](OC(=O)c3ccccc3)[C@]3(O)C[C@H](OC(=O)[C@H](O)[C@@H](NC(=O)c4ccccc4)c4ccccc4)C(C)=C1C3(C)C)[C@]1(OC(C)=O)CO[C@@H]1C[C@@H]2O [PTX, paclitaxel] | 10 | 2.5 | > 15 | 4 out of 6 | 50 | 97 | 1.5 | 12.4 | 27.6 | – |
| O=c1cc(-c2ccc(OCCOCCNCc3ccccc3)cc2)oc2ccccc12 [FM04, 2-(4-(2-(2-(benzylamino)ethoxy)ethoxy)phenyl)-4H-chromen-4-one] | – | – | – | – | – | – | – | – | – | not a transport substrate of P-gp |
